Assay [1] deals with ATN-1 (T-Lymphoblastic Leukemia). The assay can be described thus: Bliss excess, mean over the matrix (fraction); higher = more synergy. A digest of the protocol: (§1)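 Bliss excess equals the observed combination effect minus the expected value EA + EB − EA·EB, where EA and EB are the effects of each agent alone. Combination Emax is the second-highest inhibition within the matrix. Inhibition was scaled from CellTiter-Glo 2.0 luminescence, with 0 set by vehicle wells and 1 by blank wells, after 72 hours of two-drug dosing of cells plated in 1536-well plates.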

Assay [2] relates to SNU-1 (Gastric Carcinoma). The assay is described as above. The method in brief: as §1
Assay [3] relates to NCI-H1435 (Non-Small Cell Lung Carcinoma). Described as above. A digest of the protocol: as §1
The test system of assay [4] is RVH-421 (Melanoma). Described as above. A digest of the protocol: as §1
Assay [5] deals with Daudi (Burkitt's Lymphoma). Described as above. The method in brief: as §1
For assay [6], the system named is NCI-H1944 (Lung Adenocarcinoma). The assay is described as above. The method in brief: as §1
In assay [7] the test system is SBC-3 (Small Cell Lung Carcinoma). The assay is described as above. A digest of the protocol: as §1
In assay [8] the test system is OVKATE (Ovarian Carcinoma). Described as above. The method in brief: as §1
For assay [9], the system named is NCI-H1048 (Small Cell Lung Carcinoma). The description is as above. A digest of the protocol: as §1
Assay [10] has as its system JURL-MK1 (Chronic Myelogenous Leukemia). The assay is described as above. The method in brief: as §1
In assay [11] the test system is NCI-H1975 (Lung Adenocarcinoma). The description is as above. A digest of the protocol: as §1
The test system of assay [12] is NTERA-2-cl-D1 (Other Solid Carcinomas). Described as above. A digest of the protocol: as §1
For assay [13], the system named is RPMI-8402 (T-Lymphoblastic Leukemia). The assay is described as above. The method in brief:
as §1

The test system of the next assay is GCIY (Gastric Carcinoma). Described as above. The method in brief:
as §1

The test system of assay [14] is GRANTA-519 (B-Cell Non-Hodgkin's Lymphoma). The assay is described as above. A digest of the protocol:
as §1

Assay [15] relates to MRK-nu-1 (Breast Carcinoma). The assay is described as above. The method in brief:
as §1

Assay [16] concerns RVH-421 (Melanoma). The assay can be described thus: combination Emax (second highest fraction inhibited in the dose matrix, 72 h); higher = more inhibition; extreme values may be limits of the assay. A digest of the protocol: as §1

With `CN(C)CCCOc1ccc(-c2ccc3ncc4c(c3c2)n(C2CCOCC2)c(=O)n4C)cn1` [AZD0156] + C=CCn1c(=O)c2cnc(Nc3ccc(N4CCN(C)CC4)cc3)nc2n1-c1cccc(C(C)(C)O)n1 [AZD1775] (first compound max 1 µM, partner max 1 µM), the Bliss excess was 0.0198 in assay [1]; -0.003 in [2]; -0.0201 in [3]; -0.0576 in the assay with RVH-421 (Melanoma) [4]; -0.0243 in [5]; -0.0218 in [6]. Besides, the Bliss excess in assay [7] was -0.0451; in assay [8] it was -0.0601; in [9], -0.0815; in assay [10], 0.0119; in [11], 0.017; in [12] it was -0.0807. Besides, the Bliss excess in [13] was 0.0026; in the assay on GCIY (Gastric Carcinoma), -0.0428; in assay [14] it was -0.0268; in assay [15], -0.0082. Moreover, the “combination Emax” value in the assay on RVH-421 (Melanoma) [16] came out at 0.161.

As for `CN(C)CCCOc1ccc(-c2ccc3ncc4c(c3c2)n(C2CCOCC2)c(=O)n4C)cn1` [AZD0156] + CCN(CCO)CCCOc1ccc2c(Nc3cc(CC(=O)Nc4cccc(F)c4)[nH]n3)ncnc2c1 [AZD2811] (first compound max 1 µM, 7x7, partner max 1 µM), the Bliss excess was -0.0742 in assay [1]; 0.093 in assay [2]; -0.0219 in [3]; -0.0626 in the assay on RVH-421 (Melanoma) [4]; 0.107 in assay [5]; -0.0077 in assay [6]. In addition, the Bliss excess is -0.0422 in assay [7]; -0.0648 in assay [8]; -0.0053 in assay [9]; 0.0538 in assay [10]; 0.0049 in assay [11]; 0.0219 in [12]. For the same compound, the Bliss excess is -0.0022 in [13], -0.0301 in the assay with GCIY (Gastric Carcinoma), 0.0447 in assay [14] and 0.0186 in assay [15]. Moreover, in the assay with RVH-421 (Melanoma) [16], the “combination Emax” value worked out at 0.0787.

Turning to `CN(C)CCCOc1ccc(-c2ccc3ncc4c(c3c2)n(C2CCOCC2)c(=O)n4C)cn1` [AZD0156] + C[C@@H]1COCCN1C2=NC(=NC(=C2)C3(CC3)[S@](=N)(=O)C)C4=C5C=CNC5=NC=C4 [AZD6738] (first compound max 1 µM, 7x7, partner max 10 µM), the Bliss excess was -0.0052 in assay [1]; 0.0461 in assay [2]; -0.0134 in assay [3]; -0.0581 in the assay on RVH-421 (Melanoma) [4]; -0.0031 in assay [5]; 0.0062 in assay [6]. Besides, the Bliss excess in [7] was 0.0039; in assay [8], -0.0189; in assay [9], -0.0129; in assay [10] it was 0.0269; in assay [11] it was 0.0026; in assay [12] it was -0.0472. The Bliss excess in assay [13] is 0.0028; in the assay on GCIY (Gastric Carcinoma), 0.0607; in assay [14] it was -0.0335; in assay [15] it was -0.0411. Further, the “combination Emax” value in the assay on RVH-421 (Melanoma) [16] was 0.18.

Regarding `C=CCn1c(=O)c2cnc(Nc3ccc(N4CCN(C)CC4)cc3)nc2n1-c1cccc(C(C)(C)O)n1` [AZD1775] + C[C@@H]1COCCN1C2=NC(=NC(=C2)C3(CC3)[S@](=N)(=O)C)C4=C5C=CNC5=NC=C4 [AZD6738] (first compound max 1 µM, partner max 10 µM), the Bliss excess in assay [1] is -0.0076; in assay [3], 0.0291; with RVH-421 (Melanoma) [4], -0.0495; in [5], 0.0329; in [6], 0.0456; in assay [7], 0.0197. The Bliss excess in assay [8] was -0.0703; in assay [9] it was 0.0582; in [10], 0.0515; in [11] it was 0.0451; in [12], 0.0123; in assay [13] it was 0.0379. Also, the Bliss excess in the assay with GCIY (Gastric Carcinoma) was determined as 0.0091; in [14] it was 0.0068; in assay [15] it was 0.0633. The “combination Emax” value in the assay with RVH-421 (Melanoma) [16] is 0.213.

Take `Cc1c2c(nn1C)CSCc1cc(n(C)n1)CSc1cc(c3ccccc3c1)OCCCc1c(C(=O)O)n(C)c3c-2c(Cl)ccc13` [AZD5991] + C1CN(CCC1(C(=O)N[C@@H](CCO)C2=CC=C(C=C2)Cl)N)C3=NC=NC4=C3C=CN4 [Capivasertib] (first compound max 1 µM, 7x7, partner max 3 µM): the Bliss excess in assay [1] is 0.0208; in assay [2] it was -0.0176; in assay [3] it was 0.0331; with RVH-421 (Melanoma) [4], -0.0513; in assay [5], 0.0353; in [6], 0.0254. In addition, the Bliss excess in assay [7] is -0.0316; in assay [8], -0.0461; in [9] it was 0.0267; in assay [10] it was 0.0028; in [11], 0.0322; in [13], 0.0508. Besides, the values for the Bliss excess (in the assay on GCIY (Gastric Carcinoma); in assay [14]; in assay [15]) were 0.0118, -0.0295 and 0.0055, respectively. Moreover, the “combination Emax” value with RVH-421 (Melanoma) [16] turned out to be 0.411.

`Cc1c2c(nn1C)CSCc1cc(n(C)n1)CSc1cc(c3ccccc3c1)OCCCc1c(C(=O)O)n(C)c3c-2c(Cl)ccc13` [AZD5991] + CN(C)CCCOc1ccc(-c2ccc3ncc4c(c3c2)n(C2CCOCC2)c(=O)n4C)cn1 [AZD0156] (first compound max 1 µM, 7x7, partner max 1 µM): the Bliss excess in [1] is 0.0058; in assay [2], -0.0144; in assay [3], 0.0719; in the assay on RVH-421 (Melanoma) [4], 0.0113; in assay [5], 0.0362; in assay [6] it was 0.0049. The Bliss excess is -0.0128 in [7]; -0.0708 in [8]; 0.0136 in [9]; -0.0403 in assay [10]; -0.0241 in assay [11]; -0.0123 in [12]. Moreover, the figures for the Bliss excess in [13], in assay [14] and in assay [15] were -0.0536, -0.0017 and -0.028, respectively. Besides, the “combination Emax” value with RVH-421 (Melanoma) [16] came to 0.284.

For the compound `Cc1c2c(nn1C)CSCc1cc(n(C)n1)CSc1cc(c3ccccc3c1)OCCCc1c(C(=O)O)n(C)c3c-2c(Cl)ccc13` [AZD5991] + C[C@@H]1COCCN1C2=NC(=NC(=C2)C3(CC3)[S@](=N)(=O)C)C4=C5C=CNC5=NC=C4 [AZD6738] (first compound max 1 µM, 7x7, partner max 10 µM), the Bliss excess is 0.0085 in assay [1]; 0.035 in assay [2]; 0.0488 in assay [3]; 0.013 with RVH-421 (Melanoma) [4]; 0.0874 in assay [5]; 0.0405 in assay [7]. In addition, the Bliss excess in assay [8] is -0.0421; in [9], 0.0445; in assay [10], 0.0056; in assay [11], 0.0671; in assay [12], 0.0936; in assay [13], -0.0027. The Bliss excess was -0.0184 in the assay on GCIY (Gastric Carcinoma), 0.0107 in assay [14] and 0.0056 in [15]. In addition, the “combination Emax” value in the assay on RVH-421 (Melanoma) [16] was found to be 0.265.

The values are drawn from the supplement of paper PMC11061612.
